These results are taken from ChEMBL document CHEMBL2203180, “Novel nitric oxide-releasing isochroman-4-one derivatives: Synthesis and evaluation of antihypertensive activity” (Bioorg Med Chem, 2012).

Active and inactive are the calls of the source. The calls are words filed in the database; no cut-off is given here.

A short description of data set [1]: Induction of nitric oxide release in 0.1 mM phosphate buffer solution at pH 7.4 assessed as nitrate/nitrite level after 10 to 150 mins by Griess assay. In kind it is physicochemical.
Data set [2] is described as follows: Induction of nitric oxide release in 0.1 mM phosphate buffer solution at pH 7.4 assessed as nitrate/nitrite level after 150 mins by Griess assay. The following applies: pH 7.4, 2.5 h. In kind it is physicochemical.
A short description of data set [3]: Induction of nitric oxide release in 0.1 mM phosphate buffer solution at pH 7.4 assessed as nitrate/nitrite level after 60 mins by Griess assay. Particulars: pH 7.4, 1 h. In kind it is physicochemical.
Data set [4] in a line: Induction of nitric oxide release in 0.1 mM phosphate buffer solution at pH 7.4 assessed as nitrate/nitrite level after 10 mins by Griess assay. It counts as physicochemical. Particulars: pH 7.4, 10 min.
A short description of data set [5]: Induction of nitric oxide release in 0.1 mM phosphate buffer solution at pH 7.4 assessed as nitrate/nitrite level after 120 mins by Griess assay. In kind it is physicochemical. Particulars: pH 7.4, 2 h.
A short description of data set [6]: Induction of nitric oxide release in 0.1 mM phosphate buffer solution at pH 7.4 assessed as nitrate/nitrite level after 100 mins by Griess assay. The following applies: pH 7.4, 100 min. In kind it is physicochemical.
Data set [7] in a line: Induction of nitric oxide release in 0.1 mM phosphate buffer solution at pH 7.4 assessed as nitrate/nitrite level after 30 mins by Griess assay. It counts as physicochemical. The following applies: pH 7.4, 0.5 h.
Data set [8] can be described thus: Induction of nitric oxide release in 0.1 mM phosphate buffer solution at pH 7.4 assessed as nitrate/nitrite level after 80 mins by Griess assay. It counts as physicochemical. The following applies: pH 7.4, 80 min.
The subject of data set [9] is Rattus norvegicus. Kind of data set: Antihypertensive activity in spontaneously hypertensive rat assessed as reduction of mean artery pressure at 80 mg/kg, po up to 24 hrs. In kind it is functional, organism-based. On the set-up: dose 80 mg/kg.
The subject of data set [10] is Rattus norvegicus. Kind of data set: Antihypertensive activity in spontaneously hypertensive rat assessed as reduction of diastolic arterial pressure at 40 mg/kg, po up to 24 hrs. On the set-up: dose 40 mg/kg. In kind it is functional, organism-based. Particulars: Artery.
Data set [11] concerns Rattus norvegicus. Kind of data set: Antihypertensive activity in spontaneously hypertensive rat assessed as reduction of blood pressure at 80 mg/kg, po up to 24 hrs. In kind it is functional. On the set-up: scale not given: the % may be the effect or the level left.
Data set [12] deals with Rattus norvegicus. Kind of data set: Toxicity in spontaneously hypertensive rat assessed as change in heart rate at 80 mg/kg, po up to 24 hrs. It counts as organism-based. Also noted: dose 80 mg/kg, route oral. Particulars: in vivo.
Data set [13] concerns Rattus norvegicus. Kind of data set: Antihypertensive activity in spontaneously hypertensive rat assessed as reduction of diastolic arterial pressure at 80 mg/kg, po after 6 to 12 hrs. In kind it is functional, Artery. On the set-up: scale not given: the % may be the effect or the level left.
In data set [14] the test system is Rattus norvegicus. Kind of data set: Antihypertensive activity in spontaneously hypertensive rat assessed as reduction of diastolic arterial pressure at 40 mg/kg, po after 6 to 12 hrs. Also noted: scale not given: the % may be the effect or the level left. It counts as functional, Artery.

As for `COc1ccc2c(c1O)COC(C)C2=O` (centres undefined), the Activity entry in data set [1] is listed as “Not Active”.
As for `COc1cc2c(cc1OCC(=O)OCCCCO[N+](=O)[O-])C(=O)C(C)OC2` (centres undefined), the Activity in data set [2] came to 10.81 µmol/L; in data set [3], 7.13 µmol/L; in data set [4], 5.73 µmol/L; in data set [5], 9.02 µmol/L; in data set [6], 8.9 µmol/L; in [7], 6.01 µmol/L. In addition, the Activity in data set [8] is 8.69 µmol/L.
In the case of `COc1cc2c(cc1OCC(=O)OCCCO[N+](=O)[O-])COC(C)C2=O` (centres undefined), the result in [9] and in data set [10] was Active. In addition, the Activity in data set [2] was found to be 20.62 µmol/L; in data set [3] it was 11.91 µmol/L; in [4], 10.37 µmol/L; in [5], 17.61 µmol/L; in data set [6], 14.61 µmol/L; in [7], 10.41 µmol/L. Besides, the Activity in data set [8] is 14.7 µmol/L; in data set [11], 40%; in data set [12], “Non-toxic”; in data set [13], greater than 30%.
For `COc1cc2c(cc1OCC(=O)OCCCO[N+](=O)[O-])C(=O)C(C)OC2` (centres undefined), the Activity in data set [2] is 8.72 µmol/L; in data set [3] it was 6.29 µmol/L; in data set [4] it was 5.65 µmol/L; in [5], 8.6 µmol/L; in data set [6], 8.23 µmol/L; in data set [7] it was 5.76 µmol/L. In addition, the Activity in [8] came to 7.77 µmol/L.
Regarding `COc1cc2c(cc1O)COC(C)C2=O` (centres undefined), the Activity entry in [1] was “Not Active”.
As to `COc1cc2c(cc1OCC(=O)OCCO[N+](=O)[O-])COC(C)C2=O` (centres undefined), the Activity came to 16.26 µmol/L in [2]; 8.64 µmol/L in [3]; 6.66 µmol/L in data set [4]; 12.94 µmol/L in data set [5]; 11.34 µmol/L in data set [6]; 6.94 µmol/L in [7]. In data set [8], the Activity amounted to 11.11 µmol/L.
`COc1cc2c(cc1O)C(=O)C(C)OC2` (centres undefined): the Activity entry in [1] is “Not Active”.
For the molecule `COc1cc2c(cc1OCCCO[N+](=O)[O-])C(=O)C(C)OC2` (centres undefined), the Activity was found to be 7.04 µmol/L in data set [2]; 6.29 µmol/L in data set [3]; 5.14 µmol/L in [4]; 7.01 µmol/L in data set [5]; 6.89 µmol/L in data set [6]; 5.59 µmol/L in data set [7]. The Activity in [8] came out at 6.77 µmol/L.
Regarding `COc1ccc2c(c1OCCO[N+](=O)[O-])COC(C)C2=O` (centres undefined), the result in data set [9] and in data set [10] was Active. The Activity in data set [2] is 16.26 µmol/L; in [3], 4.53 µmol/L; in data set [4], 1.51 µmol/L; in [5], 14.61 µmol/L; in data set [6] it was 10.5 µmol/L; in [7] it was 1.78 µmol/L. Moreover, the Activity is 7.29 µmol/L in [8], 40% in [11], “Non-toxic” in data set [12] and greater than 30% in data set [13].
For the molecule `C[C@H](CS)C(=O)N1CCC[C@H]1C(=O)O` [CAPTOPRIL], the outcome in data set [10] was Active. The Activity in [14] is listed as greater than 30%.
With `COc1cc2c(cc1OCCCCO[N+](=O)[O-])COC(C)C2=O` (centres undefined), the Activity amounted to 12.99 µmol/L in data set [2]; 7.72 µmol/L in data set [3]; 4.81 µmol/L in data set [4]; 8.68 µmol/L in data set [5]; 8.31 µmol/L in data set [6]; 5.17 µmol/L in [7]. Also, the Activity in data set [8] was found to be 7.85 µmol/L.
Take `COc1ccc2c(c1OCCCCO[N+](=O)[O-])COC(C)C2=O` (centres undefined): the Activity in [2] was 4.02 µmol/L; in data set [3], 3.02 µmol/L; in data set [4], 2.19 µmol/L; in data set [5] it was 4.01 µmol/L; in [6], 4.03 µmol/L; in data set [7], 2.46 µmol/L. The Activity in [8] was 3.84 µmol/L.
As to `COc1cc2c(cc1OCCO[N+](=O)[O-])C(=O)C(C)OC2` (centres undefined), the Activity was determined as 10.06 µmol/L in [2]; 6.04 µmol/L in data set [3]; 5.56 µmol/L in data set [4]; 8.1 µmol/L in [5]; 7.56 µmol/L in data set [6]; 5.84 µmol/L in data set [7]. Moreover, the Activity in data set [8] is 6.52 µmol/L.
Regarding `COc1ccc2c(c1OCC(=O)OCCO[N+](=O)[O-])COC(C)C2=O` (centres undefined), the Activity in [2] turned out to be 16.68 µmol/L; in data set [3], 13 µmol/L; in data set [4], 10.62 µmol/L; in data set [5], 13.27 µmol/L; in data set [6], 13.35 µmol/L; in data set [7] it was 10.84 µmol/L. The Activity in [8] was determined as 13.12 µmol/L. Also, the result in [10] was Active.
On to `COc1ccc2c(c1OCC(=O)OCCCCO[N+](=O)[O-])COC(C)C2=O` (centres undefined), for which the Activity in [2] was found to be 8.72 µmol/L; in [3], 6.04 µmol/L; in data set [4], 4.05 µmol/L; in [5], 6.59 µmol/L; in [6], 6.55 µmol/L; in data set [7], 5.08 µmol/L. Also, in data set [8], the Activity was found to be 6.27 µmol/L.
Turning to `CC1OCc2cc(O)c(O)cc2C1=O` (racemic), the outcome in data set [10] was Active.
`COc1ccc2c(c1OCCCO[N+](=O)[O-])COC(C)C2=O` (centres undefined): the Activity in data set [2] was found to be 9.47 µmol/L; in [3] it was 9.23 µmol/L; in [4] it was 7.42 µmol/L; in [5], 9.43 µmol/L; in [6], 9.4 µmol/L; in data set [7], 7.45 µmol/L. Further, the Activity in data set [8] amounted to 9.27 µmol/L.
With `COc1cc2c(cc1OCC(=O)OCCO[N+](=O)[O-])C(=O)C(C)OC2` (centres undefined), the Activity was 13.99 µmol/L in data set [2]; 10.07 µmol/L in data set [3]; 8.43 µmol/L in data set [4]; 12.1 µmol/L in [5]; 12.09 µmol/L in data set [6]; 8.81 µmol/L in [7]. Further, the Activity in [8] came to 11.95 µmol/L.
In the case of `COc1ccc2c(c1OCC(=O)OCCCO[N+](=O)[O-])COC(C)C2=O` (centres undefined), the Activity came to 4.86 µmol/L in data set [2]; 2.27 µmol/L in data set [3]; 0.84 µmol/L in data set [4]; 4.01 µmol/L in [5]; 3.95 µmol/L in data set [6]; 1.19 µmol/L in data set [7]. In addition, the Activity in [8] was determined as 3.84 µmol/L.
As for `COc1cc2c(cc1OCCO[N+](=O)[O-])COC(C)C2=O` (centres undefined), the Activity in data set [2] is 14.72 µmol/L; in data set [3], 11.24 µmol/L; in [4], 10.12 µmol/L; in data set [5], 12.27 µmol/L; in data set [6], 12.09 µmol/L; in data set [7], 10.25 µmol/L. Moreover, the Activity in data set [8] was determined as 11.28 µmol/L.
Consider `COc1cc2c(cc1OCC(=O)OCCCCO[N+](=O)[O-])COC(C)C2=O` (centres undefined), for which the Activity is 14.92 µmol/L in data set [2]; 8.72 µmol/L in [3]; 7.42 µmol/L in data set [4]; 11.69 µmol/L in data set [5]; 11.67 µmol/L in data set [6]; 7.45 µmol/L in data set [7]. In addition, the Activity in data set [8] stood at 11.7 µmol/L.
`COc1cc2c(cc1OCCCCO[N+](=O)[O-])C(=O)C(C)OC2` (centres undefined): the Activity in data set [2] came out at 7.54 µmol/L; in [3], 4.87 µmol/L; in data set [4], 4.81 µmol/L; in [5], 6.09 µmol/L; in data set [6], 6.05 µmol/L; in data set [7] it was 4.83 µmol/L. Further, in [8], the Activity was 5.93 µmol/L.
For `COc1cc2c(cc1OCCCO[N+](=O)[O-])COC(C)C2=O` (centres undefined), the outcome in data set [9] and in data set [10] was Active. Moreover, the Activity came to 28.58 µmol/L in [2]; 18.12 µmol/L in data set [3]; 17.45 µmol/L in data set [4]; 18.95 µmol/L in data set [5]; 18.81 µmol/L in data set [6]; 17.87 µmol/L in data set [7]. In addition, the Activity was 18.3 µmol/L in data set [8], 40% in data set [11], “Non-toxic” in [12] and greater than 30% in [13].
With `CC1OCc2c(ccc(O)c2O)C1=O` (racemic), in data set [10], the outcome was Active.
